Assay [1] has as its target His-tagged KRAS G12D protein (Homo sapiens (Human), UniProt P01116, G12D). In words: KRAS G12D TR-FRET Assay. The assay is classed as binding. The conditions noted are these: read-out: KRAS G12D Binding IC50. In outline: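 His-tagged KRAS G12D (diluted to 20 nM in pH 7.4 HEPES buffer with 10 mM MgCl2 and 10 μM GDP) was preincubated with titrated compound for 30 min at room temperature. Biotinylated KRPep-2d peptide (diluted to 20 nM) was then added for 1 h, and displacement was monitored by TR-FRET.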

Assay [2] concerns the target GDP-bound KRAS protein (aa 1-169), containing both G12D and C118A amino acid substitutions (Homo sapiens (Human), UniProt P01116, C118A/G12D). Kind of assay: KRAS G12D Coupled Nucleotide Exchange Assay. The assay is classed as biochemical. Conditions: read-out: KRAS G12D Coupled Exchange IC50.
In assay [3] the test system is Phosphorylation of ERK1/2 in AsPC-1 cells. Kind of assay: Phospho-ERK1/2 MSD Assay. The conditions noted are these: Homo sapiens, ASPC1, 2 h, read-out: 2 h p-ERK (AsPC-1 cells), IC50. The assay is classed as cell-based, human. The method in brief: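 Read-out: MSD electrochemiluminescent detection of phosphorylated ERK1/2 in whole-cell lysates, fitted to a 4-parameter logistic curve for IC50. Prior to lysis, AsPC-1 cells (25,000 per well) received a 2 h compound dose-response at 37 °C.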

Here are results for 14 molecules from patent US20240294551A1 (AMGEN INC., priority 2022, published 2024).

For orientation: IC50 means the concentration at which inhibition is half-maximal.

Sequence of GDP-bound KRAS protein (aa 1-169), containing both G12D and C118A amino acid substitutions (P01116 other isoform, or with tags, fused parts or gaps G12D/C118A): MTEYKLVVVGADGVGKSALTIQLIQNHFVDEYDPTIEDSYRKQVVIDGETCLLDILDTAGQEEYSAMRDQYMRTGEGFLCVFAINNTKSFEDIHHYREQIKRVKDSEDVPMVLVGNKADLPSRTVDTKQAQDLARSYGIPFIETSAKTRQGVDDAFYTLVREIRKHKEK
Sequence of His-tagged KRAS G12D protein (P01116 other isoform, or with tags, fused parts or gaps G12D): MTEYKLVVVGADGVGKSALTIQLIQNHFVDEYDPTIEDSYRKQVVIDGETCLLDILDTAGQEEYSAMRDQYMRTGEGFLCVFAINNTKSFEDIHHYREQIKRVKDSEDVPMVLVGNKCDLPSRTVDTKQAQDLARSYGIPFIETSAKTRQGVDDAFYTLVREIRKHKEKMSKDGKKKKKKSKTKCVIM

`Cc1cc2[nH]ncc2c2c1CCOC(=O)OC1CC3(CCCN(C3)c3nc(OC[C@@H]4CCCN4C)nc4c(F)c-2ncc34)C1` [Example 205, (1R,3S)-32-fluoro-10-methyl-24-(((2S)-1-methyl-2-pyrrolidinyl)methoxy)-4,6-dioxa-13,14,19,23,25,27-hexaazaheptacyclo[25.3.1.1~1,3~.1~18,22~.0~9,17~.0~12,16~.0~21,26~]tritriaconta-9,11,14,16,18(32),19,21,23,25-nonaen-5-one]: the IC50 in assay [1] was 11 nM; in assay [2], 6 nM; in assay [3], 36.1 nM.

`Cc1cc2[nH]ncc2c2c1CCOC(=O)OC[C@H]1CN(CCO1)c1nc(OC[C@@]34CCCN3C[C@H](F)C4)nc3c(F)c-2ncc13` [Example 218]: the IC50 was 4 nM in assay [1], 3 nM in assay [2] and 27.8 nM in assay [3].

With `Cc1cc2[nH]ncc2c2c1CCOC(=O)OC[C@@H]1CCN(C1)c1nc(OC[C@@]34CCCN3C[C@H](F)C4)nc3c(F)c-2ncc13` [Example 219], the IC50 in assay [1] stood at 19 nM; in assay [2] it was 10 nM; in assay [3] it was 369 nM.

Regarding `Fc1c2ncc3c(nc(OC[C@@]45CCCN4C[C@H](F)C5)nc13)N1CC(COCCCCc3c(Cl)cc4[nH]ncc4c3-2)CC(F)(F)C1` (stereo partly drawn) [Example 229], the IC50 in assay [1] is 27 nM; in assay [2] it was 12 nM; in assay [3] it was 342 nM.

As to `Fc1c2ncc3c(nc(OC[C@@]45CCCN4C[C@H](F)C5)nc13)N1CCCC(Cc3ncn(n3)CCc3c(Cl)cc4[nH]ncc4c3-2)C1` (stereo partly drawn) [Example 232], the IC50 in assay [1] was determined as 31 nM; in assay [2] it was 18 nM; in assay [3], 1340 nM.

`Cc1cc2[nH]ncc2c2c1C[C@H](C)CCOC[C@@H]1CCCN(C1)c1nc(OC[C@@]34CCCN3C[C@H](F)C4)nc3c(F)c-2ncc13` [Example 251, (12S,17R)-30-fluoro-24-(((2R,7aS)-2-fluorotetrahydro-1H-pyrrolo[1,2-a]pyrrol-7a(5H)-yl)methoxy)-9,12-dimethyl-15-oxa-5,6,21,23,25,29-hexaazahexacyclo[24.3.1.1~17,21~.0~2,10~.0~3,7~.0~22,27~]hentriaconta-1(30),2,4,7,9,22,24,26,28-nonaene]: the IC50 is 15 nM in assay [1], 8 nM in assay [2] and 381 nM in assay [3].

For the molecule `C[C@H]1CCOC[C@H]2CN(CCO2)c2nc(OC[C@@]34CCCN3C[C@H](F)C4)nc3c(F)c(ncc23)-c2c(c(Cl)cc3[nH]ncc23)C1` [Example 252, (12R,17R)-9-chloro-30-fluoro-24-(((2R,7aS)-2-fluorotetrahydro-1H-pyrrolo[1,2-a]pyrrol-7a(5H)-yl)methoxy)-12-methyl-15,18-dioxa-5,6,21,23,25,29-hexaazahexacyclo[24.3.1.1~17,21~.0~2,10~.0~3,7~.0~22,27~]hentriaconta-1(30),2,4,7,9,22,24,26,28-nonaene], the IC50 in assay [1] turned out to be 28 nM; in assay [2], 17 nM; in assay [3] it was 926 nM.

As for `Fc1c2ncc3c(nc(OC[C@@]45CCCN4C[C@H](F)C5)nc13)N1CCCC(C1)c1cnc(o1)CCCc1c(Cl)cc3[nH]ncc3c1-2` (stereo partly drawn) [Example 255], the IC50 in assay [1] is 10 nM; in assay [2] it was 9 nM; in assay [3] it was 77.5 nM.

As to `Fc1c2ncc3c(nc(OC[C@@]45CCCN4C[C@H](F)C5)nc13)N1CCOC[C@]3(C1)C[C@@H](C3)OCCCCc1c(Cl)cc3[nH]ncc3c1-2` [Example 263, (1S,3S)-10-chloro-33-fluoro-24-(((2R,7aS)-2-fluorotetrahydro-1H-pyrrolo[1,2-a]pyrrol-7a(5H)-yl)methoxy)-4,30-dioxa-13,14,19,23,25,27-hexaazaheptacyclo[25.4.1.1~1,3~.1~18,22~.0~9,17~.0~12,16~.0~21,26~]tetratriaconta-9,11,14,16,18(33),19,21,23,25-nonaene], the half-maximal inhibitory concentration (IC50) in assay [1] came to 6 nM; in assay [2], 4 nM; in assay [3], 42.4 nM.

Regarding `Fc1c2ncc3c(nc(OC[C@@]45CCCN4C[C@H](F)C5)nc13)N1CCOC[C@]3(C1)C[C@H](C3)OCCCCc1c(Cl)cc3[nH]ncc3c1-2` [Example 264, (1R,3R)-10-chloro-33-fluoro-24-(((2R,7aS)-2-fluorotetrahydro-1H-pyrrolo[1,2-a]pyrrol-7a(5H)-yl)methoxy)-4,30-dioxa-13,14,19,23,25,27-hexaazaheptacyclo[25.4.1.1~1,3~.1~18,22~.0~9,17~.0~12,16~.0~21,26~]tetratriaconta-9,11,14,16,18(33),19,21,23,25-nonaene], the figures for the IC50 in assay [1], in assay [2] and in assay [3] were 38 nM, 24 nM and 368 nM, respectively.

In the case of `O=C1COCCc2c(Cl)cc3[nH]ncc3c2-c2ncc3c(nc(OC[C@@]45CCCN4C[C@H](F)C5)nc3c2F)N2CCCC[C@H](C2)N1` [Example 271, (26R)-18-chloro-32-fluoro-4-(((2R,7aS)-2-fluorotetrahydro-1H-pyrrolo[1,2-a]pyrrol-7a(5H)-yl)methoxy)-22-oxa-1,3,5,9,14,15,25-heptaazahexacyclo[24.4.1.1~6,10~.0~2,7~.0~11,19~.0~12,16~]dotriaconta-2,4,6,8,10(32),11,13,16,18-nonaen-24-one], the IC50 was found to be 13 nM in assay [1], 2 nM in assay [2] and 500 nM in assay [3].

For `CN1C(=O)OCCCc2c(Cl)cc3[nH]ncc3c2-c2ncc3c(nc(OC[C@@]45CCCN4C[C@H](F)C5)nc3c2F)N2C[C@@H](O)C[C@@H]1C2` [Example 286, (17R,19S)-9-chloro-30-fluoro-24-(((2R,7aS)-2-fluorotetrahydro-1H-pyrrolo[1,2-a]pyrrol-7a(5H)-yl)methoxy)-19-hydroxy-16-methyl-14-oxa-5,6,16,21,23,25,29-heptaazahexacyclo[24.3.1.1~17,21~.0~2,10~.0~3,7~.0~22,27~]hentriaconta-1(30),2,4,7,9,22,24,26,28-nonaen-15-one], the figures for the IC50 in assay [1], in assay [2] and in assay [3] were 81 nM, 15 nM and 1250 nM, respectively.

Regarding `O=C1N[C@@H]2CCCCN(C2)c2nc(OC[C@@]34CCCN3C[C@H](F)C4)nc3c(F)c(ncc23)-c2c(c(Cl)cc3[nH]ncc23)CCCCO1` [Example 291, (27R)-18-chloro-33-fluoro-4-(((2R,7aS)-2-fluorotetrahydro-1H-pyrrolo[1,2-a]pyrrol-7a(5H)-yl)methoxy)-24-oxa-1,3,5,9,14,15,26-heptaazahexacyclo[25.4.1.1~6,10~.0~2,7~.0~11,19~.0~12,16~]tritriaconta-2,4,6(33),7,9,11,13,16,18-nonaen-25-one], the figures for the IC50 in assay [1], in assay [2] and in assay [3] were 26 nM, 5 nM and 1230 nM, respectively.

Consider `Fc1c2ncc3c(nc(OC[C@@]45CCCN4C[C@H](F)C5)nc13)N1CCOC(C1)c1cnn(n1)CCCc1c(Cl)cc3[nH]ncc3c1-2` (stereo partly drawn) [Example 294, 9-chloro-31-fluoro-25-(((2R,7aS)-2-fluorotetrahydro-1H-pyrrolo[1,2-a]pyrrol-7a(5H)-yl)methoxy)-19-oxa-5,6,14,15,22,24,26,30,33-nonaazaheptacyclo[25.3.1.1~14,17~.1~18,22~.0~2,10~.0~3,7~.0~23,28~]tritriaconta-1(31),2,4,7,9,15,17(33),23,25,27,29-undecaene], for which the results for the 50% inhibitory concentration (IC50) in assay [1], in assay [2] and in assay [3] were 20 nM, 9 nM and 55.1 nM, respectively.
